Experimental data as given in patent publication US20210196779A1, “Compositions and Methods for Treating Steroid Hormone-Related Diseases or Disorders” (YALE UNIVERSITY, priority 2018, published 2021).

What was measured:
Assay type in all cases: cell-based
[1] = tested on: SGK1 mRNA (target gene of GR); assay: qRT-PCR of DEX induced SGK1 mRNA; settings: 22RV1 or PC3 cells
Description: FIGS. 5D-5E are graphs showing the effect of Y1830, RG (or the fraction comprising RG), and RGA (or the fraction comprising RGA) on the DEX induced glucocorticoid receptor mediated transcriptional response of 22RV1 and PC3 PSA-luciferase reporter cells. FIGS. 5F-5G are graphs showing the effect of Y1830 on SGK1 (target gene of GR) mRNA expression with or without DEX using qRT-PCR.
RNA was extracted from herb treated cells using the Roche High Pure RNA isolation kit. cDNA was then generated from RNA samples using a Bio-rad iScript Advanced cDNA synthesis kit for RT-qPCR. qPCR was performed using human NRF2, H01, NQO1 and β-actin primers (Table 1) and iTaq™ Universal SYBR® Green Supermix in a CFX PCR machine (Bio-rad). Relative mRNA expression was calculated based on the change of the threshold cycle relative to the internal control, β-actin, using a standard curve generated by purified PCR products.

[2] = tested on: T4D cells; assay: Cell growth assay, T4D breast cancer cells; settings: under E2 stimulation, 4 days
Procedure: MCF7, T47D, MDA-MB-453, MDA-MB-231 breast cancer cells were grown in corning T75 cell culture flask in RPMI1640 medium supplemented with 5% FBS, 50 μg/ml Kanamycin in a 37° C., 5% CO2 incubator.
20,000 cells in 1 ml of medium (phenol red free RPMI1640, 5% charcoal-dialysis FBS, 50 μg/ml Kanamyacin) were seeded per well of a 24-well plate and incubated in a 37° C. incubator with 5% CO2 overnight. Different concentrations of herbal extract were added to each well in order to have final concentrations from 50 μg/ml to 500 μg/ml. For prostate cancer cells, DHT (25 nM) was used to stimulate androgen receptor activity. For glucocorticoid receptor overexpressed LNCaP cells, dexamethasone (50 nM) was used to stimulate glucocorticoid receptor activity. For all breast cancer cells, E2 (10 nM) was used to stimulate ER activity. Control medium without any steroid hormone was used as a control setting. After 4 days of incubation, cells were fixed and stained for 2 h with 0.5% methylene blue in 50% ethanol, followed by washing with tap water to remove unbound dye. Plates were air dried and then cells were dissolved in 1% sarkosyl (sodium lauroyl sarcosinate) by shaking at room temperature for 3 h. Cell growth was quantified based on the amount of methylene blue adsorbed by the cells as measured by a spectrophotometer (Molecular Devices) at 595 nm. […]

[3] = biological target: glucocorticoid receptor (GR) (Homo sapiens, UniProt P04150); assay: PSA-luciferase reporter assay, DEX induced, PC3 cells; parameters: Western blot analysis for AR and GR protein expression in LNCaP, 22RV1 and PC3 cells; endogenous in cells; host or cells: PC3
Sequence of glucocorticoid receptor (GR) (P04150 whole entry): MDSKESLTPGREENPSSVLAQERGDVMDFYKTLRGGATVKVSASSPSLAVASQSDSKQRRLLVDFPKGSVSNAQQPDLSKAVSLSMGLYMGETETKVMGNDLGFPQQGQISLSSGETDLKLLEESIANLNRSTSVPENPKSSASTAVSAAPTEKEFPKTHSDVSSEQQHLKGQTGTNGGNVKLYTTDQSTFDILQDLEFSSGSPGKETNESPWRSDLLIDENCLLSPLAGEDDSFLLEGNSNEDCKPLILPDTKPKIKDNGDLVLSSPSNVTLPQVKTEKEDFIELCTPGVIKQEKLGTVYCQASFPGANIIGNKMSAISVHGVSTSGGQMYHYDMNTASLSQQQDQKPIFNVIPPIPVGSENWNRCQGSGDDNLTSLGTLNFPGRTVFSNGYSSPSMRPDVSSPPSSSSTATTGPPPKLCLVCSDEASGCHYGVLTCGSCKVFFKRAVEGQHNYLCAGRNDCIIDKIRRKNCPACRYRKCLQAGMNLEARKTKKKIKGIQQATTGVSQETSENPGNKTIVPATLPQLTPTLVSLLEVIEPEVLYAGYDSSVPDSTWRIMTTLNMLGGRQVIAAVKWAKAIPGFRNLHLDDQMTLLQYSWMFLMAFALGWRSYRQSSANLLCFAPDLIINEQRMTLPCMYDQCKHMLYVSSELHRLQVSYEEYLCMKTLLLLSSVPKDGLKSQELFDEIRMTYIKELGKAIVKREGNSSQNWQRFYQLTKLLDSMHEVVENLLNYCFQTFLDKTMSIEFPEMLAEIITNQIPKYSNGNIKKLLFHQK
Procedure: Reporter cells were treated with herbal extracts at 30, 100, 300, and 1000 μg/ml for 24 h in a 37° C.-CO2 incubator. DHT (25 nM) was used to stimulate androgen receptor activity. Dexamethasone (50 nM) was used to stimulate glucocorticoid receptor activity Cells were lysed using luciferase lysis buffer after which luciferase buffer with luciferin was added to generate luminescence. Luminescence was recorded using a luminescence microplate reader.

- inhibitory effect on DEX induced transcriptional response [3]: inhibitory effect
Compound: CC(=O)OCC1OC(Oc2cc3c(c(O)c2C)C(=O)c2ccc(O)cc2C3=O)C(OC2OC(C)C(O)C(O)C2O)C(O)C1O [RGA, 1,3,6-Trihydroxy-2-methyl-9,10-anthracenedione 3-O-[α-L-Rhamnopyranosyl-(1→2)-6-O-acetyl-β-D-glucopyranoside]]
- inhibition of DEX induced SGK1 mRNA expression [1]: inhibited
- inhibitory effect on T4D cell growth [2]: strong inhibitory effect
